Values after ≈ are worked out from the molar mass of the structure shown. Square brackets hold non-standard residues; d marks the D form. Ends that are not written are not given here. Peptide text beside a SMILES is read from it. ξ: configuration not given here. ξαMeGly(pent-4-enyl) = C=CCCCC(C)(N)C(=O)O
What was measured:
A. baumannii 91152 = type: cell-based, Acinetobacter baumannii; details: 91152, 18 h
Method: (§1) The minimum inhibitory concentration (MIC) of the Feleucin-K3 analogs was tested by the broth microdilution method. Sensitive bacteria and drug-resistant bacteria were diluted to 1 × 10^6 CFU/mL, according to the McFarland standards. Bacterial suspension and peptide solutions (8–128 μg/mL) were incubated at 37 °C for 18 h. The minimum concentration without obvious bacterial growth was the MIC of the peptides. The stability of the analogs in a physiological salt environment was also investigated. In brief, salt powder (450-mM NaCl) was dissolved in deionized water, and the following investigational steps were the same as those described before. The above steps were repeated several times, until the same value was obtained three times.

A. baumannii 5444 = type: cell-based, Acinetobacter baumannii; details: 5444, 18 h
Method: as §1

A. baumannii 9840 = type: cell-based, Acinetobacter baumannii; details: 9840, 18 h
Method: as §1

A. baumannii 9234 = type: cell-based, Acinetobacter baumannii; details: 9234, 18 h
Method: as §1

A. baumannii 91869 = type: cell-based, Acinetobacter baumannii; details: 91869, 18 h
Method: as §1

A. baumannii 9331 = type: cell-based, Acinetobacter baumannii; details: 9331, 18 h
Method: as §1

A. baumannii 91810 = type: cell-based, Acinetobacter baumannii; details: 91810, 18 h
Method: as §1

A. baumannii 92359 = type: cell-based, Acinetobacter baumannii; details: 92359, 18 h
Method: as §1

A. baumannii 9828 = type: cell-based, Acinetobacter baumannii; details: 9828, 18 h
Method: as §1

A. baumannii 91105 = type: cell-based, Acinetobacter baumannii; details: 91105, 18 h
Method: as §1

A. baumannii 91199 = type: cell-based, Acinetobacter baumannii; details: 91199, 18 h
Method: as §1

A. baumannii ATCC 19606 = type: cell-based, Acinetobacter baumannii; details: ATCC 19606, 18 h
Method: as §1

A. baumannii 91944 = type: cell-based, Acinetobacter baumannii; details: 91944, 18 h
Method: as §1

A. baumannii 8309 = type: cell-based, Acinetobacter baumannii; details: 8309, 18 h
Method: as §1

A. baumannii 97830 = type: cell-based, Acinetobacter baumannii; details: 97830, 18 h
Method: as §1

A. baumannii 9236 = type: cell-based, Acinetobacter baumannii; details: 9236, 18 h
Method: as §1

A. baumannii 51243 = type: cell-based, Acinetobacter baumannii; details: 51243, 18 h
Method: as §1

A. baumannii 9336 = type: cell-based, Acinetobacter baumannii; details: 9336, 18 h
Method: as §1

A. baumannii 9896 = type: cell-based, Acinetobacter baumannii; details: 9896, 18 h
Method: as §1

A. baumannii 98110 = type: cell-based, Acinetobacter baumannii; details: 98110, 18 h
Method: as §1

A. baumannii 822144 = type: cell-based, Acinetobacter baumannii; details: 822144, 18 h
Method: as §1

E. coli ATCC 25922 = type: cell-based; details: ATCC 25922, 18 h
Method: as §1

MRSA 23 = type: cell-based, Staphylococcus aureus; details: 23, 18 h
Method: as §1

MRSA 75 = type: cell-based, Staphylococcus aureus; details: 75, 18 h
Method: as §1

MRSA 54 = type: cell-based, Staphylococcus aureus; details: 54, 18 h
Method: as §1

S. aureus 725 = type: cell-based, Staphylococcus aureus; details: 725, 18 h
Method: as §1

S. aureus ATCC 25923 = type: cell-based, Staphylococcus aureus; details: ATCC 25923, 18 h
Method: as §1

MRSA 113 = type: cell-based, Staphylococcus aureus; details: 113, 18 h
Method: as §1

MRSA 936 = type: cell-based, Staphylococcus aureus; details: 936, 18 h
Method: as §1

MRSA ATCC 33591 = type: cell-based, Staphylococcus aureus; details: ATCC 33591, 18 h
Method: as §1

MRSA 71 = type: cell-based, Staphylococcus aureus; details: 71, 18 h
Method: as §1

MRSA 52 = type: cell-based, Staphylococcus aureus; details: 52, 18 h
Method: as §1

MRSA 51 = type: cell-based, Staphylococcus aureus; details: 51, 18 h
Method: as §1

MRSA 48 = type: cell-based, Staphylococcus aureus; details: 48, 18 h
Method: as §1

S. aureus 794 = type: cell-based, Staphylococcus aureus; details: 794, 18 h
Method: as §1

MRSA 74 = type: cell-based, Staphylococcus aureus; details: 74, 18 h
Method: as §1

P. aeruginosa ATCC 27853 = type: cell-based, Pseudomonas aeruginosa; details: ATCC 27853, 18 h
Method: as §1

A. baumannii = test: Resistance development assay, sequential passaging; type: cell-based, Acinetobacter baumannii; details: serial passage at sub-MIC, 20 passages
Method: Serial passage and MIC determination were used to explore whether the bacteria developed drug resistance. On the first day, the MICs of the peptides were determined as described above. The next day, the bacterial suspension of sub-MIC concentration was cultivated to the mid-log phase. The MICs of the peptides were detected again, and this process was repeated for 20 days. The MICs of the antibiotics, including amoxicillin (AML), ceftazidime (CAZ) and imipenem, were also determined as controls.

[1] = system: multidrug-resistant A. baumannii; parameters: method as in PMID 32590058; details: previous studies; cited from earlier work
mouse RBCs = details: cited from earlier work
Excerpt: The hemolysis rates of K70 were less than 1%, even at the maximum c ...

MIC, A. baumannii 91152 (A. baumannii 91152) [µg/mL]	MIC, A. baumannii 5444 (A. baumannii 5444) [µg/mL]	MIC, A. baumannii 9840 (A. baumannii 9840) [µg/mL]	MIC, A. baumannii 9234 (A. baumannii 9234) [µg/mL]	MIC, A. baumannii 91869 (A. baumannii 91869) [µg/mL]	MIC, A. baumannii 9331 (A. baumannii 9331) [µg/mL]	MIC, A. baumannii 91810 (A. baumannii 91810) [µg/mL]	MIC, A. baumannii 92359 (A. baumannii 92359) [µg/mL]	MIC, A. baumannii 9828 (A. baumannii 9828) [µg/mL]	MIC, A. baumannii 91105 (A. baumannii 91105) [µg/mL]	MIC, A. baumannii 91199 (A. baumannii 91199) [µg/mL]	MIC, A. baumannii 91944 (A. baumannii 91944) [µg/mL]	MIC, A. baumannii 8309 (A. baumannii 8309) [µg/mL]	MIC, A. baumannii 97830 (A. baumannii 97830) [µg/mL]	MIC, A. baumannii 9236 (A. baumannii 9236) [µg/mL]	MIC, A. baumannii 51243 (A. baumannii 51243) [µg/mL]	MIC, A. baumannii 9336 (A. baumannii 9336) [µg/mL]	MIC, A. baumannii 9896 (A. baumannii 9896) [µg/mL]	MIC, A. baumannii 98110 (A. baumannii 98110) [µg/mL]	MIC, A. baumannii 822144 (A. baumannii 822144) [µg/mL]	Compound	also measured
16 (≈ 14.2 µM)	8 (≈ 7.11 µM)	8 (≈ 7.11 µM)	8 (≈ 7.11 µM)	8 (≈ 7.11 µM)	64 (≈ 56.9 µM)	16 (≈ 14.2 µM)	16 (≈ 14.2 µM)	16 (≈ 14.2 µM)	8 (≈ 7.11 µM)	16 (≈ 14.2 µM)	16 (≈ 14.2 µM)	8 (≈ 7.11 µM)	32 (≈ 28.4 µM)	16 (≈ 14.2 µM)	32 (≈ 28.4 µM)	8 (≈ 7.11 µM)	8 (≈ 7.11 µM)	16 (≈ 14.2 µM)	16 (≈ 14.2 µM)	C=CCCCC(C)(NC(=O)[C@H](CC(C)C)NC(=O)[C@H](CC(C)C)NC(=O)[C@H](CCCCN)NC(=O)[C@H](CC(C)C)NC(=O)[C@@H](N)Cc1ccccc1)C(=O)N[C@@H](CCCCN)C(=O)N[C@@H](CC(C)C)C(=O)N[C@@H](CC(C)C)C(N)=O (stereo partly shown) [Feleucin-K71] (H-FLKLL[ξαMeGly(pent-4-enyl)]KLL-NH2)	MIC, A. baumannii ATCC 19606 (A. baumannii ATCC 19606): 4 µg/mL (≈ 3.55 µM); MIC, E. coli ATCC 25922 (E. coli ATCC 25922): 16 µg/mL (≈ 14.2 µM); MIC, MRSA 23 (MRSA 23): 4 µg/mL (≈ 3.55 µM); MIC, MRSA 75 (MRSA 75): 4 µg/mL (≈ 3.55 µM); MIC, MRSA 54 (MRSA 54): 4 µg/mL (≈ 3.55 µM); MIC, S. aureus 725 (S. aureus 725): 4 µg/mL (≈ 3.55 µM); MIC, S. aureus ATCC 25923 (S. aureus ATCC 25923): 4 µg/mL (≈ 3.55 µM); MIC, MRSA 113 (MRSA 113): 4 µg/mL (≈ 3.55 µM); MIC, MRSA 936 (MRSA 936): 4 µg/mL (≈ 3.55 µM); MIC, MRSA ATCC 33591 (MRSA ATCC 33591): 4 µg/mL (≈ 3.55 µM); MIC, MRSA 71 (MRSA 71): 4 µg/mL (≈ 3.55 µM); MIC, MRSA 52 (MRSA 52): 4 µg/mL (≈ 3.55 µM); MIC, MRSA 51 (MRSA 51): 4 µg/mL (≈ 3.55 µM); MIC, MRSA 48 (MRSA 48): 4 µg/mL (≈ 3.55 µM); MIC, S. aureus 794 (S. aureus 794): 16 µg/mL (≈ 14.2 µM); MIC, MRSA 74 (MRSA 74): 4 µg/mL (≈ 3.55 µM); MIC, P. aeruginosa ATCC 27853 (P. aeruginosa ATCC 27853): 8 µg/mL (≈ 7.11 µM)
																				C[C@@H](O)[C@H]1C(=O)N2C(C(=O)O)=C(SCCN=CN)C[C@H]12 [imipenem]	maximum fold increase of MIC, A. baumannii (A. baumannii): ≤ 16 fold; MIC against multidrug-resistant A. baumannii [1]: ≤ 64 µg/mL
8	8	8	8	8	16	8	8	16	8	8	8	8	8	16	8	8	8	8	8	FLKLLKKLL-NH2 [Feleucin-K3]	MIC, MRSA 23 (MRSA 23): 8 µg/mL; MIC, MRSA 75 (MRSA 75): 8 µg/mL; MIC, MRSA 54 (MRSA 54): 8 µg/mL; MIC, S. aureus 725 (S. aureus 725): 8 µg/mL; MIC, MRSA 113 (MRSA 113): 8 µg/mL; MIC, MRSA 936 (MRSA 936): 8 µg/mL; MIC, MRSA ATCC 33591 (MRSA ATCC 33591): 8 µg/mL; MIC, MRSA 71 (MRSA 71): 8 µg/mL; MIC, MRSA 52 (MRSA 52): 8 µg/mL; MIC, MRSA 51 (MRSA 51): 8 µg/mL; MIC, MRSA 48 (MRSA 48): 8 µg/mL; MIC, S. aureus 794 (S. aureus 794): 16 µg/mL; MIC, MRSA 74 (MRSA 74): 8 µg/mL; hemolytic rate at 256 µg/mL (mouse RBCs): more than 40%
